Here are results for 1 sequence from publication PMC4182091, “A Common Minimal Motif for the Ligands of HLA-B*27 Class I Molecules” (PLoS ONE, 2014).

Holding throughout (assay type): cell-based
For assay [1], the target named is T1, HLA-B*2709 (Homo sapiens, UniProt P01889, D138H/D201E/E176V/E204Q/G107R/H137Y/K202T/N104T/N87E/Q56L/Q94K/R106L/R155S/R180L/S101D/S121N/S48T/Y140H/Y33H/Y91C).
T1 construct: expressed in transfected cells; host or cells: RMA-S (TAP-deficient murine cell line)
Briefly: HLA/peptide complex stability assay, RMA-S cells transfected with HLA-B*2709. As to conditions: EC50, B*2709; SD.

The target in assay [2] is T2, HLA-B*2706 (Homo sapiens, UniProt P01889, A235G/D201E/E204Q/G107R/H137Y/K202T/N104T/N87E/Q56L/Q94K/R106L/R155S/R180L/S121N/S48T/Y33H/Y91C).
T2 construct: expressed in transfected cells; host or cells: RMA-S (TAP-deficient murine cell line)
Description: HLA/peptide complex stability assay, RMA-S cells transfected with HLA-B*2706. The following applies: SD.

Assay [3] deals with HLA-B*2704 (Homo sapiens, UniProt P01889, A235G/D138H/D201E/E204Q/G107R/H137Y/K202T/N104T/N87E/Q56L/Q94K/R106L/R155S/R180L/S121N/S48T/Y140D/Y33H/Y91C). Description: HLA/peptide complex stability assay, RMA-S cells transfected with HLA-B*2704. The following applies: SD.
Assay [4] addresses T3, HLA-B*2703 (Homo sapiens, UniProt P01889, D138H/D201E/E176V/E204Q/G107R/H137Y/K202T/N104T/N87E/Q56L/Q94K/R106L/R155S/R180L/S101D/S121N/S48T/Y140D/Y33H/Y83H/Y91C).
T3 construct: expressed in transfected cells; host or cells: RMA-S (TAP-deficient murine cell line)
Description: HLA/peptide complex stability assay, RMA-S cells transfected with HLA-B*2703. The following applies: EC50, B*2703; SD.

Assay [5] addresses HLA-B*2702 (Homo sapiens, UniProt P01889, D138H/D201E/E176V/E204Q/G107R/H137Y/K202T/L105A/N104I/N87E/Q56L/Q94K/R106L/R155S/R180L/S101N/S121N/S48T/Y140D/Y33H/Y91C). Description: HLA/peptide complex stability assay, RMA-S cells transfected with HLA-B*2702. As to conditions: EC50, B*2702; SD.
Assay [6] deals with T4, HLA-B*2705 (Homo sapiens, UniProt P01889, D138H/D201E/E176V/E204Q/G107R/H137Y/K202T/N104T/N87E/Q56L/Q94K/R106L/R155S/R180L/S101D/S121N/S48T/Y140D/Y33H/Y91C).
T4 construct: expressed in transfected cells; host or cells: RMA-S (TAP-deficient murine cell line)
Description: HLA/peptide complex stability assay, RMA-S cells transfected with HLA-B*2705. As to conditions: SD.

Assay [7] concerns the target T5, HLA-B*2701 (Homo sapiens, UniProt P01889, D138H/D201E/D98Y/E176V/E204Q/G107R/H137Y/K202T/L105A/N104T/N87E/Q56L/Q94K/R106L/R155S/R180L/S101N/S121N/S48T/Y140D/Y33H/Y91C).
T5 construct: expressed in transfected cells; host or cells: RMA-S (TAP-deficient murine cell line)
Description: HLA/peptide complex stability assay, RMA-S cells transfected with HLA-B*2701. The following applies: SD.

Ends that are not written are not given here.

Regarding “RRAIATPGM [Flu PB1 238-246, reference compound]”, the EC50 (commonly the concentration at which the effect is half-maximal) was 2000 ± 1000 nM in assay [1]; 2000 ± 1000 nM in assay [2]; 9 ± 1 µM in assay [3]; 2000 ± 1000 nM in assay [4]; 12 ± 4 µM in assay [5]; 3 ± 2 µM in assay [6]. In addition, it took 5 ± 1 µM to reach a half-maximal effect in assay [7] (EC50).
